{
  "source": "patent EP0966963A1",
  "about": "“Use of indigoid bisindole derivatives as CDK1 inhibitors” (Eisenbrand, Gerhard, Prof. Dr., priority 1998, dated 1999)",
  "key": {"p34^cdc2/cyclin B": {"target": "p34^cdc2/cyclin B", "assay": "p34cdc2/cyclin B kinase assay (histone H1 phosphorylation, [32P]ATP)", "type": "biochemical, starfish (Marthasterias glacialis)", "conditions": "1 mg histone H1/ml, 15 µM ATP, 10 min at 30°C", "method": "J. Biochem., 243, (1997), 527-536). […] After 10 min. incubation at 30°C, 25 μl aliquots of supernatant were spotted onto 2.5 x 3 cm pieces of Whatman P81 phosphocellulose paper, and after 20 sec., the filters were washed five times (for at least 5 min. each time) in a solution of 10 ml phosphoric acid/liter of water. The wet filters were transferred into 6 ml plastic scintillation vials, 5 ml ACS (Amersham) scintillation fluid was added and the radioactivity measured in a Packard scintillation counter."}, "cdc25": {"system": "cdc25", "assay": "cdc25 inhibition (specificity panel)", "type": "biochemical"}, "[1]": {"target": "cAMP-dependent protein kinase", "assay": "PKA inhibition (specificity panel)", "type": "biochemical"}, "[2]": {"target": "Ca^2+- dependent protein kinase", "assay": "PKC inhibition (specificity panel)", "type": "biochemical"}, "CDK4": {"target": "CDK4 (Homo sapiens, UniProt P11802)", "sequence (P11802 whole entry, species assumed)": "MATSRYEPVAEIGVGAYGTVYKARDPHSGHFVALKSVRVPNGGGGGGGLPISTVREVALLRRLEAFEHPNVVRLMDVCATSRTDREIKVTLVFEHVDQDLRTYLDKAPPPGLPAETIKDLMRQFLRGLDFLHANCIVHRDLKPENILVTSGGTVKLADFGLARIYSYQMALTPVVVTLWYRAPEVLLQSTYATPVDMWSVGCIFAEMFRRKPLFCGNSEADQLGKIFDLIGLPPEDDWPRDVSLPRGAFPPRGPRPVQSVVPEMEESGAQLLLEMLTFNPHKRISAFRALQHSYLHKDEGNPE", "sequence (P24385 whole entry partner, species assumed)": "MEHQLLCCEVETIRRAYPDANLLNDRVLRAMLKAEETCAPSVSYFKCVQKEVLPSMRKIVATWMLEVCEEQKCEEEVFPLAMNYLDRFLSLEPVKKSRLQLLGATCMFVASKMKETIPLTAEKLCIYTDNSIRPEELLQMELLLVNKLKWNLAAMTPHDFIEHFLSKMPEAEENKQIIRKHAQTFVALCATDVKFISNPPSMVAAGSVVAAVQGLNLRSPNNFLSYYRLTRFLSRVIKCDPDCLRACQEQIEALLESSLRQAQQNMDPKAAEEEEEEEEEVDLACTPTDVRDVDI", "conditions": "known chemical inhibitors, Meijer 1996; cited from earlier work"}, "PKA": {"system": "PKA", "conditions": "known chemical inhibitors, Meijer 1996; cited from earlier work"}},
  "data": [
    {"smiles": "O=C1Nc2ccccc2C1=C1Nc2ccccc2C1=O", "note": "[Example 1, Indirubine]", "values": [
      {"measurement": "IC50", "setting": "p34^cdc2/cyclin B", "result": 2, "unit": "µM"},
      {"measurement": "IC50", "setting": "cdc25", "result": 150, "unit": "µM"},
      {"measurement": "IC50 PKA", "setting": "[1]", "result": "no Effect"},
      {"measurement": "IC50 PKC", "setting": "[2]", "result": "no Effect"}
    ]},
    {"smiles": "COC(=O)[C@@]1(Cc2ccc(O)c(CC=C(C)C)c2)OC(=O)C(O)=C1c1ccc(O)cc1", "note": "[Butyrolactone-l]", "values": [
      {"measurement": "IC50 CDK4", "setting": "CDK4", "result": "no effect"},
      {"measurement": "IC50", "setting": "PKA", "result": 260, "unit": "µM"}
    ]},
    {"smiles": "O=C1Nc2ccccc2C1=C1Nc2ccccc2C1=NO", "note": "[Example 10, Indirubine-3'-oxime]", "values": [
      {"measurement": "IC50", "setting": "p34^cdc2/cyclin B", "result": 0.18, "unit": "µM"}
    ]},
    {"smiles": "CN1CC[C@H](c2c(O)cc(O)c3c(=O)cc(-c4ccccc4Cl)oc23)[C@H](O)C1", "note": "[Flavopiridol]", "values": [
      {"measurement": "IC50", "setting": "PKA", "result": 145, "unit": "µM"}
    ]},
    {"smiles": "O=C1Nc2ccc(I)cc2C1=C1Nc2ccccc2C1=O", "note": "[Example 2, 5-Iodoindirubine]", "values": [
      {"measurement": "IC50 PKA", "setting": "[1]", "result": "no Effect"},
      {"measurement": "IC50 PKC", "setting": "[2]", "result": "no Effect"}
    ]}
  ]
}
